Laboratory results reported in US8580793B2, “Use of kinase inhibitor for the treatment of thymoma” (Nerviano Medical Services S.r.l., priority 2009, dated 2013).

System: thymic carcinoma
Experiment: Phase I clinical trial, objective tumor response in thymic carcinoma patients (RECIST)
Assay type: in vivo, human
Settings: 150 mg daily; for decrease in the sum of target lesions compared to baseline: patient; for tumor response as per RECIST criteria: thymic carcinoma patient, 4 days on/3 days off for 3 weeks in 4-week cycle
Description: An objective tumor response was obtained in a patient, first diagnosed with thymic carcinoma in May 2002 and having had their third progression of disease with metastases to lung in July 2007, entered the phase I clinical trial in September 2007. […] The patient, prior to be treated in the clinical trial, received other treatments for their thymic carcinoma, as follows: from January 2005 to June 2005: Adriamycin®, Cytoxan®, Cisplatin; from February 2006 to May 2006: Ifosfamide; from October 2006 to June 2007: Taxol®, Carboplatin; from June 2007 to July 2007: Adriamycin®, Cytoxan®, Vincristine. The patient had also surgery in May 2002 and radiotherapy in July 2002 and July 2006.
Another objective tumor response was obtained in a patient, first diagnosed with thymic carcinoma in May 2006, becoming metastatic to lung, bones and peritoneum in October 2007. The patient started treatment in the phase I clinical trial in December 2008. […] The patient, prior to be treated in the clinical trial, received one line of chemotherapy (cisplatin/gemcitabine) from November 2007 to March 2008; they had surgery in May 2006 and radiotherapy in September 2006.

Which “decrease in the sum of target lesions compared to baseline” value (“decrease in the sum of target lesions” below) (PR confirmed one month later) does the source give for CNC(=O)c1nn(C)c2c1C(C)(C)Cc1cnc(Nc3ccc(N4CCN(C)CC4)cc3)nc1-2 [compound of formula (I), 8-[4-(4-methyl-piperazin-1-yl)-phenylamino]-1,4,4-trimethyl-4,5-dihydro-1H-pyrazolo[4,3-h]quinazoline-3-carboxylic acid methylamide] here?
Its value is 40%.

And the “decrease in the sum of target lesions” value (after 6 cycles)?
The value was 30%.

And the “decrease in the sum of target lesions” value (after 10 cycles)?
The value was 31.2%.

What about the “decrease in the sum of target lesions” value (documented until cycle 13) of the same molecule?
Its value is 37.6%.

What about the “tumor response as per RECIST criteria” value (after 6 cycles) of the same molecule?
Its value is “partial tumor response (PR)”.

What about the “tumor response as per RECIST criteria” value (after 10 cycles) of the same molecule?
The value was “partial tumor response (PR)”.
